Structures are written as SMILES.

In patent US20240246918A1, “COMPOUNDS AND COMPOSITIONS AS EIF4E INHIBITORS AND THE USES THEREOF” (Ribometrix, Inc., priority 2022, published 2024) one finds IC50 data, which are given here for 25 molecules.

The target in one assay is T1, human eIF4E protein (Homo sapiens, UniProt P06730).
T1 construct: purchased Novus NBP-45314
The experiment in a line: Biochemical competitive binding assay (TR-FRET competition, EDA-m7GDP-ATTO-647N probe). Particulars: read-out: hEIF4E TR-FRET IC50. In outline: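 IC50 values come from 4-parameter fits of the normalized 665/620 nm TR-FRET ratio. Compound was first incubated 15 min with 4 nM recombinant His-eIF4E bound to 2.5 nM Eu-anti-His antibody, then 15 min with 5 nM m7GDP-ATTO-647N tracer, in pH 7.5 HEPES buffer with 100 mM KCl, Tween-20 and BSA.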
In general terms: Time-resolved FRET reads energy transfer from a long-lived donor to a nearby acceptor.

In assay [1] the test system is cap-dependent translation in Flp-In-293 reporter cells. The experiment in a line: Cellular cap-dependent translation inhibition assay (dual luciferase assay, DLA; Fluc/Rluc ratio, 24 hours). It counts as cell-based. As to conditions: Homo sapiens, Flp-In-293, 24 h, dual luciferase assay, Flp-In-293 reporter cells, 24 hours, Fluc/Rluc ratio; read-out: DLA 205 IC50.
The subject of assay [2] is COLO 205 colorectal tumor cells. The experiment in a line: Tumor cell viability inhibition assay (CellTiter-Glo 2.0, 72 hours). It counts as cell-based. As to conditions: Homo sapiens, COLO 205, 72 h, COLO 205 cell viability. In outline: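 IC50 derived by 4-parameter fitting after normalizing luminescence to DMSO and max-inhibition wells. Compounds tested as 11 concentrations in 4-fold steps on COLO 205 cells seeded at 1500 per well in RPMI-1640/10% FBS; ATP content measured with CellTiter-Glo 2.0 after 72 h.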
A general note: ATP-based viability assays read luminescence as a measure of living cells.

T1 sequence (P06730 whole entry): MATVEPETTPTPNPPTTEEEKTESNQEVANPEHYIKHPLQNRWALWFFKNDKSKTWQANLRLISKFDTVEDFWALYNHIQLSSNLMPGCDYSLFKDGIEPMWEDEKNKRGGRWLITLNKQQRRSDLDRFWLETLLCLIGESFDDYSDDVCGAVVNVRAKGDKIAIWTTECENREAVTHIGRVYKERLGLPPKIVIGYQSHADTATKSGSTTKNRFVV

On to `Cc1cc(-c2cc(Cl)ccc2OCCn2c(C)nc3c(c2=O)CC(N(C)C(=O)C2CCN(CC(F)(F)F)CC2)CC3)c2scc(C(=O)NS(C)(=O)=O)c2n1` (stereo not drawn) [Compound 82], for which the IC50 (usually the concentration needed to halve the response being measured) on human eIF4E protein is less than 0.1 µM; in assay [1], 1 to 5 µM; in assay [2], more than 20 µM.

In the case of `Cc1cc(-c2cc(Cl)ccc2OCCn2c(C)nc3c(c2=O)CC(N(CC(F)(F)F)C2CCC2)CC3)c2scc(C(=O)O)c2n1` (stereo not drawn) [Compound 83], the IC50 on human eIF4E protein was less than 0.1 µM; in assay [1], 1 to 5 µM; in assay [2], 5 to 20 µM.

Take `Cc1cc(-c2cc(Cl)ccc2OCCn2c(C)nc3c(c2=O)CC(N(C)C(=O)C2CCN(C)CC2)CC3)c2scc(C(=O)NS(C)(=O)=O)c2n1` (stereo not drawn) [Compound 84]: the figures for the IC50 (on human eIF4E protein; in assay [1]; in assay [2]) were less than 0.1 µM, more than 5 µM and more than 20 µM, respectively.

Consider `Cc1nc2c(c(=O)n1CC#Cc1ccc(Cl)cc1-c1ccnc3c(C(=O)O)csc13)CC(N1CC(F)(F)C1)CC2` (stereo not drawn) [Compound 85], for which the figures for the concentration for half-maximal inhibition (IC50) (on human eIF4E protein; in assay [1]; in assay [2]) were 0.1 to 0.5 µM, 1 to 5 µM and less than 5 µM, respectively.

Consider `Cc1nc2c(c(=O)n1CC#Cc1ccc(Cl)cc1-c1ccnc3c(C(=O)O)csc13)CC(N(C)C1CC(F)(F)C1)CC2` (stereo not drawn) [Compound 86], for which the IC50 at human eIF4E protein was less than 0.1 µM; in assay [1], less than 1 µM; in assay [2], less than 5 µM.

Regarding `Cc1cc(-c2cc(Cl)ccc2OCCn2c(C)nc3c(c2=O)CC(N(CC(F)(F)F)C2CCC2)CC3)c2scc(C(=O)NS(C)(=O)=O)c2n1` (stereo not drawn) [Compound 87], the results for the IC50 (on human eIF4E protein; in assay [1]; in assay [2]) were less than 0.1 µM, less than 1 µM and less than 5 µM, respectively.

For `Cc1cc(-c2cc(Cl)ccc2OCCn2c(C)nc3c(c2=O)CC(N2CCN(C)C(=O)C2)CC3)c2scc(C(=O)NS(C)(=O)=O)c2n1` (stereo not drawn) [Compound 88], the IC50 at human eIF4E protein is less than 0.1 µM; in assay [1] it was more than 5 µM; in assay [2], more than 20 µM.

`Cc1cc(-c2cc(Cl)ccc2OCCn2c(C)nc3c(c2=O)CC(N2CC(C(F)(F)F)C2)CC3)c2scc(C(=O)O)c2n1` (stereo not drawn) [Compound 90]: the IC50 at human eIF4E protein is less than 0.1 µM; in assay [1] it was less than 1 µM; in assay [2], less than 5 µM.

`Cc1cc(-c2cc(Cl)ccc2OCCn2c(C)nc3c(c2=O)CC(N(C)C2CCC2)CC3)c2scc(C(=O)O)c2n1` (stereo not drawn) [Compound 91]: the IC50 on human eIF4E protein was less than 0.1 µM; in assay [1], less than 1 µM; in assay [2] it was less than 5 µM.

Consider `Cc1cc(-c2cc(Cl)ccc2OCCn2c(C)nc3c(c2=O)CC(OC2CCN(C)CC2)CC3)c2scc(C(=O)O)c2n1` (stereo not drawn) [Compound 92], for which the IC50 at human eIF4E protein was 0.1 to 0.5 µM; in assay [1], more than 5 µM; in assay [2], more than 20 µM.

Regarding `Cc1cc(-c2cc(Cl)ccc2OCCn2c(C)nc3c(c2=O)CC(N2CCN(C)C(=O)C2)CC3)c2scc(C(=O)O)c2n1` (stereo not drawn) [Compound 95], the results for the IC50 (at human eIF4E protein; in assay [1]; in assay [2]) were less than 0.1 µM, more than 5 µM and more than 20 µM, respectively.

For `Cc1cc(-c2cc(Cl)ccc2OCCn2c(C)nc3c(c2=O)CC(N(C)CC2CC(F)(F)C2)CC3)c2scc(C(=O)O)c2n1` (stereo not drawn) [Compound 96], the figures for the IC50 (on human eIF4E protein; in assay [1]; in assay [2]) were less than 0.1 µM, less than 1 µM and less than 5 µM, respectively.

With `Cc1cc(-c2cc(Cl)ccc2OCCn2c(C)nc3c(c2=O)CC(N(C2CCC2)C2CC2)CC3)c2scc(C(=O)O)c2n1` (stereo not drawn) [Compound 97], the IC50 at human eIF4E protein is less than 0.1 µM; in assay [1], less than 1 µM; in assay [2] it was less than 5 µM.

Turning to `Cc1cc(-c2cc(Cl)ccc2OCCn2c(C)nc3c(c2=O)CC(N(C2CCC2)C2CC(F)(F)C2)CC3)c2scc(C(=O)NS(C)(=O)=O)c2n1` (stereo not drawn) [Compound 98], the IC50 on human eIF4E protein was less than 0.1 µM; in assay [1] it was less than 1 µM; in assay [2], less than 5 µM.

For `COc1cc(CN(C)C2CCc3nc(C)n(CCOc4ccc(Cl)cc4-c4cc(C)nc5c(C(=O)O)csc45)c(=O)c3C2)ccn1` (stereo not drawn) [Compound 248], the IC50 is less than 0.1 µM on human eIF4E protein, less than 1 µM in assay [1] and less than 5 µM in assay [2].

Take `Cc1cc(-c2cc(Cl)ccc2OCCn2c(C)nc3c(c2=O)CC(N(C)C2CC24CCC4)CC3)c2scc(C(=O)O)c2n1` (stereo not drawn) [Compound 262]: the IC50 at human eIF4E protein is less than 0.1 µM; in assay [1], less than 1 µM; in assay [2] it was less than 5 µM.

For the molecule `Cc1cc(-c2cc(Cl)ccc2OCCn2c(C)nc3c(c2=O)CC(N(C)C2(C(F)(F)F)CC2)CC3)c2scc(C(=O)O)c2n1` (stereo not drawn) [Compound 265], the IC50 at human eIF4E protein is 0.1 to 0.5 µM; in assay [1] it was 1 to 5 µM; in assay [2] it was more than 20 µM.

As for `Cc1cc(-c2cc(Cl)ccc2OCCn2c(C)nc3c(c2=O)CC2(CC3)CCN(C3CC3)CC2)c2scc(C(=O)O)c2n1` [Compound 267, 7-(5-chloro-2-(2-(1-cyclopropyl-2′-methyl-4′-oxo-7′,8′-dihydro-4′H-spiro[piperidine-4,6′-quinazolin]-3′(5′H)-yl)ethoxy)phenyl)-5-methylthieno[3,2-b]pyridine-3-carboxylic acid], the IC50 at human eIF4E protein was less than 0.1 µM; in assay [1], less than 1 µM; in assay [2], 5 to 20 µM.

Consider `Cc1cc(-c2cc(Cl)ccc2OCCn2c(C)nc3c(c2=O)CC2(CC3)CCN(C)CC2)c2scc(C(=O)O)c2n1` [Compound 268, 7-(5-chloro-2-(2-(1,2′-dimethyl-4′-oxo-7′,8′-dihydro-4′H-spiro[piperidine-4,6′-quinazolin]-3′(5′H)-yl)ethoxy)phenyl)-5-methylthieno[3,2-b]pyridine-3-carboxylic acid], for which the IC50 on human eIF4E protein was 0.5 to 5 µM; in assay [1], more than 5 µM; in assay [2] it was more than 20 µM.

In the case of `Cc1cc(-c2cc(Cl)ccc2OCCn2c(C)cc3c(c2=O)CC2(CC3)CN(C)C2)c2scc(C(=O)O)c2n1` [Compound 269], the IC50 at human eIF4E protein was less than 0.1 µM; in assay [1], more than 5 µM; in assay [2], more than 20 µM.

Take `Cc1cc(-c2cc(Cl)ccc2OCCn2c(C)nc3c(c2=O)CC2(CC3)CN(C3CC3)C2)c2scc(C(=O)O)c2n1` [Compound 270, 7-(5-chloro-2-(2-(1-cyclopropyl-2′-methyl-4′-oxo-7′,8′-dihydro-4′H-spiro[azetidine-3,6′-quinazolin]-3′(5′H)-yl)ethoxy)phenyl)-5-methylthieno[3,2-b]pyridine-3-carboxylic acid]: the IC50 at human eIF4E protein is less than 0.1 µM; in assay [1], less than 1 µM; in assay [2], 5 to 20 µM.

For `Cc1nc2c(c(=O)n1CC#Cc1ccc(Cl)cc1-c1ccnc3c(C(=O)NS(C)(=O)=O)csc13)CC(N(C)C1CC1)CC2` (stereo not drawn) [Compound 271], the IC50 was less than 0.1 µM on human eIF4E protein, less than 1 µM in assay [1] and less than 5 µM in assay [2].

Consider `Cc1cc(-c2cc(Cl)ccc2OCCn2c(C)nc3c(c2=O)CC(N(C)C2CC2)CC3)c2c(n1)c(C(=O)NS(C)(=O)=O)cn2C` (stereo not drawn) [Compound 272], for which the 50% inhibitory concentration (IC50) on human eIF4E protein is 0.5 to 5 µM; in assay [1] it was more than 5 µM; in assay [2], more than 20 µM.

As for `Cc1cc(-c2cc(Cl)ccc2OCCn2c(C)nc3c(c2=O)CC(N(C)C2(c4ccc(F)cc4)CC2)CC3)c2scc(C(=O)NS(C)(=O)=O)c2n1` (stereo not drawn) [Compound 274], the IC50 at human eIF4E protein is 0.1 to 0.5 µM; in assay [1], 1 to 5 µM; in assay [2], 5 to 20 µM.

For `Cc1nc2c(c(=O)n1CC#Cc1ccc(Cl)cc1-c1ccnc3c(C(=O)O)csc13)CC(N(C)C1CCN(CC(F)(F)F)CC1)CC2` (stereo not drawn) [Compound 275], the IC50 was less than 0.1 µM on human eIF4E protein, less than 1 µM in assay [1] and less than 5 µM in assay [2].
